Test results from article PMC6214108, “Synthesis and In Vitro Antitumor Activity of Novel Bivalent β-Carboline-3-carboxylic Acid Derivatives with DNA as a Potential Target” (International Journal of Molecular Sciences, 2018).

What was measured:
calf thymus DNA (CT DNA) = test: UV-visible spectral study with CT DNA; type: binding; details: 10 μM compound, 200 nM CT DNA additions
Procedure: UV-visible spectroscopy was carried out to determine the binding mode of β-carboline derivatives to DNA (CT DNA) using UV-2500 spectrophotometer (Shimadzu, Kyoto, Japan) at 25 °C. Stock solutions of 10 mM β-carboline derivatives were dissolved in DMSO, and 10 μM CT DNA was prepared in 100 mM KBPES buffer (30 mM Potassium Phosphate with 100 mM KCl, pH 7.0). UV-visible absorption titrations were performed by adding 200 nM CT DNA solution to the quartz cuvette containing approximately 10 μM derivative solutions. UV-Visible absorption spectra were recorded from 200 nm to 350 nm.
Figure 5 UV-visible spectroscopy study of β-carbolines with calf thymus (CT) DNA. UV-visible absorption titrations were done by adding 200 nM CT DNA solution each time to the quartz cuvette containing 10 μM 4B, 6i, 4D, and 6u. The absorption spectra were recorded from 200 nm to 350 nm.

A549 cells = test: Hoechst 33342/PI dual staining, morphological observation of apoptosis; type: cell-based; details: A549, 48 h, 8 μM (Figure 1 legend; method says 4 μM)
Procedure: The morphological observation of apoptosis was performed by Hoechst 33342 and propidium iodide (PI) dual staining according to the manufacturer’s instructions. A549 cells (2 × 10^4 cells per well) seeded into 24-well plates (JET, Guangzhou, China) were incubated with DMEM containing 4 μM of β-carbolines (4B, 6i, 4D, and 6u) for 48 h at 37 °C and 5% CO2. Then, the cells were stained by Hoechst 33342 and PI at 37 °C for 30 min in dark conditions. Finally, cells were observed and photographed with a fluorescence microscope (LeicaDM6B, Leica, Nussloch, Germany).
Figure 1 Morphological observation was performed by Hoechst 33342/propidium iodide (PI) dual staining. A549 cells were treated with 4B, 6i, 4D, and 6u at 8 μM for 48 h, and then stained with Hoechst 33342 and PI at 37 °C in dark conditions. The stained cells were observed under a fluorescence microscope (Leica DM6B, Leica, Nussloch, Germany). Hoechst 33342 was used to stain the living and apoptotic nuclei, and emitted blue fluorescence (upper). PI was used to stain the dead nuclei and emitted red fluorescence (lower).

bcl-2 protein = test: Western blot of bcl-2 protein; type: cell-based; details: A549, 2, 4, and 8 μM, 48 h
Procedure: (§1) The level of cytochrome C (Cyt C) in mitochondria, and the expression of bcl-2 protein, were evaluated by western blot. A549 cells (1 × 10^6 cells per well) seeded into 6-well plates (JET, Guangzhou, China) were incubated with DMEM containing various concentrations (2, 4, and 8 μM) of β-carbolines (6i and 6u) for 48 h at 37 °C and 5% CO2. Then, the cells were lysed with RIPA lysis buffer for 30 min on ice (containing 1% PMSF), centrifuged at 12,000× g for 5 min at 4 °C, and then the supernatants were transferred to 1.5 mL EP tubes. Proteins were separated by sodium dodecyl sulfate-polyacrylamide gel electrophoresis (SDS-PAGE) and blotted on polyvinylidene difluoride (PVDF) membranes (Millipore, Burlington, MA, USA), as previously described. The membranes were blocked for 2 h at r.t. with 5% non-fat milk in TBST buffer (20 mM Tris-HCl,150 mM NaCl and 0.05% Tween-20, pH7.4), and then incubated with the mouse anti-bcl-2 monoclonal antibody (Sigma, Saint Louis, MO, USA), anti-cytochrome C monoclonal antibody (Beyotime, Haimen, China), and anti-β-actin antibody (1:4000 dilution; Abcam, Cambridge, MA, USA) overnight at 4 °C, and finally incubated with the peroxidase conjugated goat anti-mouse IgG (Jackson ImmunoResearch Laboratories, West Grove, PA, USA) at 37 °C for 1 h. […]

[1] = tested on: cytochrome C (Cyt C) in mitochondria; test: Western blot of cytochrome C in mitochondria; type: cell-based; details: A549, 2, 4, and 8 μM, 48 h
Procedure: as §1

Row | SMILES | Intercalation ability (UV-visible spectra with CT DNA) (calf thymus DNA (CT DNA)) | Morphological observation of cell apoptosis (Hoechst 33342/PI) (A549 cells) | Expression of bcl-2 protein, western blot (bcl-2 protein) | Level of Cyt C (in mitochondria), western blot [1]
1 | COC(=O)c1cc2c3ccccc3n(Cc3ccccc3F)c2cn1 [Compound 4D] | very weak | could induce cell apoptosis and further cell necrosis |  | 
2 | Cc1ccccc1Cn1c2ccccc2c2cc(C(=O)OCCCCCOC(=O)c3cc4c5ccccc5n(Cc5ccccc5C)c4cn3)ncc21 [Compound 6i] |  | could induce cell apoptosis and further cell necrosis | decreased in a dose-dependent manner | decreased in a dose-dependent manner
3 | COC(=O)c1cc2c3ccccc3n(Cc3ccccc3C)c2cn1 [Compound 4B] |  | could only induce cell apoptosis in a dose-dependent manner |  | 
4 | O=C(OCCCCCOC(=O)c1cc2c3ccccc3n(Cc3ccccc3F)c2cn1)c1cc2c3ccccc3n(Cc3ccccc3F)c2cn1 [Compound 6u] |  | could induce cell apoptosis and further cell necrosis | decreased in a dose-dependent manner | decreased in a dose-dependent manner
